Among the test systems are Staphylococcus aureus; Escherichia coli; Trypanosoma cruzi; Staphylococcus capitis 1; Enterococcus faecalis; Acinetobacter baumannii; Escherichia coli O111:B4; Escherichia coli D21; Candida parapsilosis; Candida tropicalis; Bacillus megaterium Bm11; Klebsiella pneumoniae; Streptococcus equinus; Candida albicans; Escherichia coli ML-35; Rhodotorula mucilaginosa.
Holding throughout (assay): ≥ marks a high value that may be exact or a test limit, other limits are often not marked, values filed in µg/mL are converted to µM
Assay [1] concerns Bifidobacterium longum subsp. infantis.
Assay [2] has as its system Yersinia pseudotuberculosis YPIII.
Assay [3] concerns Staphylococcus aureus ATCC 29213.
The subject of assay [4] is Staphylococcus aureus Cowan 1.
Assay [5] concerns Pseudomonas aeruginosa ATCC 27853.
The subject of assay [6] is Corynebacterium jeikeium ATCC BAA-949.
Assay [7] relates to Acinetobacter baumannii ATCC 19606.
Assay [8] relates to Staphylococcus epidermidis ATCC 12228.
Assay [9] concerns Escherichia coli ATCC 25922.
For assay [10], the system named is Staphylococcus aureus ATCC 25923.
Assay [11] has as its system Saccharomyces cerevisiae AS2.430.
For assay [12], the system named is Salmonella enterica subsp. enterica serovar Enteritidis.
Assay [13] concerns Serratia marcescens ATCC 8100.
The subject of assay [14] is Salmonella enterica subsp. enterica serovar Typhimurium ATCC 14028.
The test system of assay [15] is Klebsiella pneumoniae ATCC 13883.
In assay [16] the test system is Escherichia coli CCT 1371.
In assay [17] the test system is Pseudomonas aeruginosa KACC 10259.
Assay [18] concerns Candida albicans KACC 30071.
Assay [19] concerns Pseudomonas aeruginosa ATCC 9027.
In assay [20] the test system is Enterococcus faecalis KACC 11304.
For assay [21], the system named is Staphylococcus aureus USA 300.
The subject of assay [22] is Klebsiella pneumoniae KCTC 2242.
The test system of assay [23] is Staphylococcus aureus USA 100.
Assay [24] concerns Bacillus subtilis CCT 2471.
Assay [25] concerns Candida albicans ATCC 90028.
In assay [26] the test system is Staphylococcus aureus KACC 10196.
Assay [27] deals with Enterobacter cloacae ATCC 23355.
Assay [28] relates to Bacillus subtilis KACC 10196.
Assay [29] concerns Staphylococcus aureus ATCC 6535.
The subject of assay [30] is Staphylococcus saprophyticus.
The test system of assay [31] is Escherichia coli KACC 1039.

Converted amounts (≈) assume the structure as drawn. “And” between values parts separate entries of the source, which are not always exact repeats. Equal entries are not always repeated. Bounds are passed on as bounds.

One may read the MIC as the least concentration at which growth counts as inhibited. Low readings indicate inhibition by little substance, high ones a need for much substance. Consider `CC[C@H](C)[C@H](NC(=O)[C@@H]1CCCN1C(=O)[C@@H](N)CCC(=O)O)C(=O)N1CCC[C@H]1C(=O)N[C@@H](CC(C)C)C(=O)N[C@@H](CCC(=O)O)C(=O)N[C@@H](CO)C(=O)N[C@@H](CCCN=C(N)N)C(=O)N[C@@H](CCC(=O)O)C(=O)N[C@@H](CCC(=O)O)C(=O)O` [EPIPLESREE], for which the MIC was not below 2500 µM in [1], 2090 µM (≈ 2500 µg/mL) with Staphylococcus aureus and 2090 µM (≈ 2500 µg/mL) against Escherichia coli.
`CC[C@H](C)[C@H](NC(=O)[C@H](C)NC(=O)[C@H](Cc1cnc[nH]1)NC(=O)[C@@H]1CCCN1C(=O)[C@@H](NC(=O)[C@H](CC(C)C)NC(=O)[C@H](CO)NC(=O)[C@H](CC(C)C)NC(=O)[C@@H](N)Cc1ccccc1)[C@@H](C)CC)C(=O)N[C@@H](CC(N)=O)C(=O)N[C@@H](C)C(=O)N[C@H](C(=O)N[C@@H](CO)C(=O)N[C@H](C(=O)N[C@@H](CC(C)C)C(=O)N[C@H](C(=O)N[C@@H](Cc1cnc[nH]1)C(=O)N[C@@H](Cc1cnc[nH]1)C(=O)N[C@@H](CO)C(=O)NCC(N)=O)C(C)C)[C@@H](C)O)C(C)C` [FLSLIPHAINAVSTLVHHSG] gave an MIC against Trypanosoma cruzi of 14.2 µM (≈ 30 µg/mL).
As for `CC[C@H](C)[C@H](N)C(=O)N[C@H](C(=O)NCC(=O)N1CCC[C@H]1C(=O)N[C@H](C(=O)N[C@@H](CC(C)C)C(=O)NCC(=O)N[C@@H](CC(C)C)C(=O)N[C@H](C(=O)NCC(=O)N[C@@H](CO)C(=O)N[C@@H](C)C(=O)N[C@@H](CC(C)C)C(=O)NCC(=O)NCC(=O)N[C@@H](CC(C)C)C(=O)N[C@@H](CC(C)C)C(=O)N[C@@H](CCCCN)C(=O)N[C@@H](CCCCN)C(=O)N[C@H](C(N)=O)[C@@H](C)CC)C(C)C)C(C)C)[C@@H](C)CC` [IIGPVLGLVGSALGGLLKKI], the MIC in the assay on Staphylococcus capitis 1 is 12.5 µM (≈ 24 µg/mL); in assay [2] it was 12.5 µM (≈ 24 µg/mL); in the assay on Enterococcus faecalis, not below 50 µM; in assay [3], 12.5 µM (≈ 24 µg/mL); with Acinetobacter baumannii, not below 50 µM; against Escherichia coli O111:B4 it was not below 50 µM. Further, the minimum inhibitory concentration (MIC) in assay [4] was 12.5 µM (≈ 24 µg/mL); with Escherichia coli D21, not below 50 µM; in [5] it was more than 50 µM; in assay [6], 8 µM (≈ 15.3 µg/mL); in assay [7], 12.5 µM (≈ 24 µg/mL); in [8], 12.5 µM (≈ 24 µg/mL). Also, the minimum inhibitory concentration (MIC) in [9] was more than 50 µM.
For `CC(C)C[C@H](NC(=O)[C@H](CCC(=O)O)NC(=O)[C@@H](N)CCCCN)C(=O)N[C@@H](CCC(=O)O)C(=O)N[C@@H](CCC(=O)O)C(=O)N[C@@H](CCCCN)C(=O)O` [KELEEK], the MIC in [10] was 403 µM (≈ 313 µg/mL); in assay [11] it was not below 25800 µM; in assay [9] it was 807 µM (≈ 625 µg/mL).
Turning to `CC(C)C[C@H](NC(=O)[C@H](CCC(N)=O)NC(=O)[C@H](CCC(=O)O)NC(=O)[C@H](CC(C)C)NC(=O)[C@H](Cc1ccccc1)NC(=O)[C@H](CCC(=O)O)NC(=O)[C@H](CCC(N)=O)NC(=O)[C@H](Cc1ccccc1)NC(=O)[C@H](CO)NC(=O)[C@H](CC(C)C)NC(=O)[C@@H]1CCCN1C(=O)[C@H](Cc1ccccc1)NC(=O)[C@H](Cc1c[nH]c2ccccc12)NC(=O)[C@H](Cc1cnc[nH]1)NC(=O)[C@H](CCCN=C(N)N)NC(=O)[C@H](CCCN=C(N)N)NC(=O)[C@@H](N)CCCCN)C(=O)N[C@@H](CCCN=C(N)N)C(=O)N[C@@H](CCCN=C(N)N)C(=O)N[C@@H](Cc1ccccc1)C(=O)N[C@@H](CCCN=C(N)N)C(=O)N[C@@H](CC(=O)O)C(=O)N[C@@H](CCC(N)=O)C(=O)N[C@@H](CC(C)C)C(=O)N1CCC[C@H]1C(=O)N[C@@H](Cc1ccccc1)C(=O)N1CCC[C@H]1C(=O)O` [KRRHWFPLSFQEFLEQLRRFRDQLPFP], the MIC was 15.9 µM (≈ 57 µg/mL) in assay [10]; 31.9 µM (≈ 114 µg/mL) in [12]; 31.9 µM (≈ 114 µg/mL) against Candida parapsilosis; 7.97 µM (≈ 28.5 µg/mL) in assay [13]; 31.9 µM (≈ 114 µg/mL) in assay [14]; 31.9 µM (≈ 114 µg/mL) in the assay on Candida tropicalis. Also, the MIC in [15] was 7.97 µM (≈ 28.5 µg/mL); against Staphylococcus aureus it was 31.9 µM (≈ 114 µg/mL); against Bacillus megaterium Bm11 it was 3.92 µM (≈ 14 µg/mL); in assay [5] it was more than 31.9 µM; in the assay on Klebsiella pneumoniae, 31.9 µM (≈ 114 µg/mL); against Streptococcus equinus, 31.9 µM (≈ 114 µg/mL). For the same compound, the MIC against Candida albicans was more than 31.9 µM; with Escherichia coli ML-35 it was 3.92 µM (≈ 14 µg/mL); in the assay with Rhodotorula mucilaginosa, 31.9 µM and 15.9 µM; in [8], 7.97 µM (≈ 28.5 µg/mL); in assay [9], 3.92 µM (≈ 14 µg/mL).
Turning to `CC[C@H](C)[C@H](NC(=O)[C@H](CO)NC(=O)[C@@H](NC(=O)[C@H](CCCCN)NC(=O)[C@H](Cc1ccccc1)NC(=O)[C@@H]1CCCN1)[C@@H](C)CC)C(=O)N[C@@H](Cc1cnc[nH]1)C(=O)N[C@@H](CC(C)C)C(N)=O` [PFKISIHL], the MIC is 2.62 µM (≈ 2.5 µg/mL) in assay [16]; 8 µM (≈ 7.63 µg/mL) in [17]; 16 µM (≈ 15.3 µg/mL) in assay [18]; 50 µM (≈ 47.7 µg/mL) in assay [19]; 16 µM (≈ 15.3 µg/mL) in [20]; not below 50 µM in [21]. Moreover, the MIC in [15] was 10.5 µM (≈ 9.99 µg/mL); in assay [22], 8 µM (≈ 7.63 µg/mL); in assay [23] it was not below 50 µM; in assay [24], 10.5 µM (≈ 9.99 µg/mL); in assay [5] it was 10.5 µM (≈ 9.99 µg/mL); in assay [25], not below 50 µM. In addition, the minimum inhibitory concentration (MIC) in assay [26] stood at 16 µM (≈ 15.3 µg/mL); in assay [27] it was 10.5 µM (≈ 9.99 µg/mL); against Candida albicans, 2.62 µM (≈ 2.5 µg/mL); in [28], 4 µM (≈ 3.81 µg/mL); in assay [29], 10.5 µM (≈ 9.99 µg/mL); in assay [30] it was 15.7 µM (≈ 15 µg/mL). In assay [31], this compound displayed an MIC of 8 µM (≈ 7.63 µg/mL).

The values are drawn from DBAASP.
